Source: article PMC3025922 (BMC Biology, 2010)
Like-named read-outs stand apart in the source and are kept apart here.

Tests used:
[1] = system: nuclear p27 in LNCaP-S14 cells; type: cell-based, human
LNCaP-S14 cells = test: MTT cytotoxicity assay, LNCaP-S14; conditions: Homo sapiens, 72 h, read-out: IC50 (MTT cytotoxicity)
Method: (§1) LNCaP-S14 (10,000 cells), PC3, DU145 or IMR90 cells (5000 cells) were seeded in 96-well plates and treated with increasing concentrations of the respective SMIPs for 72 h. Cell viability was assessed using the MTT cell proliferation assay (ATCC®, Middlesex, UK) according to the manufacturer's protocol. IC50 was calculated using the BioDataFit 1.02 software http://www.changbioscience.com/stat/ec50.html.

[2] = MTT cytotoxicity assay, IMR90; type: cell-based; conditions: human, IMR90, 0.01 - 40 μM, 72 h
Method: as §1

[3] = primary screening, nuclear p27 in LNCaP-S14 cells
[4] = primary screening, S = strong, M = medium, W = weak by Z score

SMILES	Z score (aver) [1, 3]	Clasf [1, 4]	other results
CCCCOc1ccc(C(=O)CCN2CCCCC2)cc1.Cl [1568F10]	2.33	W (weak (Z score 2-3)	–
Clc1ccccc1C(c1ccccc1)(c1ccccc1)n1ccnc1 [1568F16]	–	–	Clasf [1]: W (key: S: strong (Z score > 5); M: medium (Z score 3-5); W: weak (Z score 2-3); Z score (aver) [1]: 2.26
CN(C)CCCN1c2ccccc2CCc2ccc(Cl)cc21.Cl [1568F20]	2.49	W (weak (Z score 2-3)	–
O=C(Nc1ccc([N+](=O)[O-])cc1Cl)c1cc(Cl)ccc1O [1568G21]	3.77	M (medium (Z score 3-5))	–
CCC1(O)C(=O)OCc2c1cc1n(c2=O)Cc2cc3ccccc3nc2-1 (centres unmarked) [1568H21]	4.82	M (medium (Z score 3-5))	–
OCCN1CCN(CCCN2c3ccccc3Sc3ccc(Cl)cc32)CC1 [1568I12]	3.13	M (medium (Z score 3-5))	–
Cl.OC(c1cc(C(F)(F)F)nc2c(C(F)(F)F)cccc12)C1CCCCN1 (centres unmarked) [1568I14]	8.87	S (strong (Z score > 5))	–
CN1CCCN(C(c2ccccc2)c2ccc(Cl)cc2)CC1.Cl (centres unmarked) [1568J08]	2.49	W (weak (Z score 2-3)	–
C1CCC(C(CC2CCCCN2)C2CCCCC2)CC1.O=C(O)C=CC(=O)O (centres unmarked) [1568J14]	7.22	S (strong (Z score > 5))	–
O=C(CCCN1CCC2(CC1)C(=O)NCN2c1ccccc1)c1ccc(F)cc1 [1568J18]	4.37	M (medium (Z score 3-5))	–
COC(=O)Nc1nc2cc(Sc3ccccc3)ccc2[nH]1 [1568J21]	3.73	M (medium (Z score 3-5))	–
COc1ccc(CCN2CCC(Nc3nc4ccccc4n3Cc3ccc(F)cc3)CC2)cc1 [1568K14]	–	–	Clasf [1]: S (key: S: strong (Z score > 5); M: medium (Z score 3-5); W: weak (Z score 2-3); Z score (aver) [1]: 8.76
CC#CC1(O)CCC2C3CCC4=CC(=O)CCC4=C3C(c3ccc(N(C)C)cc3)CC21C (centres unmarked) [1568L20]	3.22	M (medium (Z score 3-5))	–
N=C(NCCCCCCNC(=N)NC(=N)Nc1ccc(Cl)cc1)NC(=N)Nc1ccc(Cl)cc1 [1568M08]	6.26	S (strong (Z score > 5))	–
CCC(=C(c1ccccc1)c1ccc(OCCN(C)C)cc1)c1ccccc1.O=C(O)CC(O)(CC(=O)O)C(=O)O [1568M14]	2.56	W (weak (Z score 2-3)	–
Clc1ccc(COC(Cn2ccnc2)c2ccc(Cl)cc2Cl)c(Cl)c1 (centres unmarked) [1568M15]	–	–	Clasf [1]: W (key: S: strong (Z score > 5); M: medium (Z score 3-5); W: weak (Z score 2-3); Z score (aver) [1]: 2.54
Clc1ccc(COC(Cn2ccnc2)c2ccc(Cl)cc2Cl)cc1.O=[N+]([O-])O (centres unmarked) [1568N10]	2.46	W (weak (Z score 2-3)	–
O=c1[nH]c2ccccc2n1C1CCN(CCCC(c2ccc(F)cc2)c2ccc(F)cc2)CC1 [1568N18]	2.26	W (weak (Z score 2-3)	–
CSc1ccc2c(c1)N(CCC1CCCCN1C)c1ccccc1S2.Cl (centres unmarked) [1568O17]	–	–	Clasf [1]: W (key: S: strong (Z score > 5); M: medium (Z score 3-5); W: weak (Z score 2-3); Z score (aver) [1]: 2.51
CCN(CC)CCCC(C)Nc1c2ccc(Cl)cc2nc2ccc(OC)cc12 (centres unmarked) [1568P18]	6.13	S (strong (Z score > 5))	–
CCCCCCC[N+](CC)(CC)CCCCc1ccc(Cl)cc1.Cc1ccc(S(=O)(=O)[O-])cc1 [1568P20]	9.16	S (strong (Z score > 5))	–
Cl.OCCN1CCN(CCCN2c3ccccc3Sc3ccc(C(F)(F)F)cc32)CC1 [1568P22]	2.76	W (weak (Z score 2-3)	–
CN(C)CCC=C1c2ccccc2Sc2ccc(Cl)cc21.Cl [1569E17]	3.86	M (medium (Z score 3-5))	–
COc1ccc(Cc2nccc3cc(OC)c(OC)cc23)cc1OC.Cl [1569F08]	2.60	W (weak (Z score 2-3)	–
C=C(NC(=O)C(=C)NC(=O)c1csc(C2=NC3c4csc(n4)C4NC(=O)c5csc(n5)C(C(C)(O)C(C)O)NC(=O)C5CSC(=N5)C(=CC)NC(=O)C(C(C)O)NC(=O)c5csc(n5)C3(CC2)NC(=O)C(C)NC(=O)C(=C)NC(=O)C(C)NC(=O)C(C(C)CC)NC2C=Cc3c(C(C)O)cc(nc3C2O)C(=O)OC4C)n1)C(N)=O (centres unmarked) [1569J05]	5.60	S (strong (Z score > 5))	–
CSc1ccc2c(c1)C(N1CCN(C)CC1)Cc1ccccc1S2.O=C(O)C=CC(=O)O (centres unmarked) [1569K11]	4.55	M (medium (Z score 3-5))	–
C=C1c2c(Cl)ccc(O)c2C(=O)C2=C(O)C3(O)C(=O)C(C(N)=O)=C(O)C(N(C)C)C3C(O)C12.O=C(O)c1cc(S(=O)(=O)O)ccc1O (centres unmarked) [1569K14]	2.51	W (weak (Z score 2-3)	–

SMILES	Z score (aver) [1, 3]	Clasf [1, 4]	other results
CC1=CC(=O)c2ccccc2C1=O [1569K20]	6.94	S (strong (Z score > 5))	–
Cc1c2ccncc2c(C)c2c1[nH]c1ccccc12 [1569L10]	2.59	W (weak (Z score 2-3)	–
Cl.Fc1ccc(C(OCCN2CCN(CCCc3ccccc3)CC2)c2ccc(F)cc2)cc1 [1569M13]	5.81	S (strong (Z score > 5))	–
Cc1cc(N)c2ccccc2[n+]1CCCCCCCCCC[n+]1c(C)cc(N)c2ccccc21.Cl [1569M17]	9.20	S (strong (Z score > 5))	–
C=C1C(=O)OC2C1CCC(C)=CCCC1(C)OC21 (centres unmarked) [1569N21]	8.12	S (strong (Z score > 5))	–
COc1cc(C2c3cc4c(cc3C(OC3OC5COC(C)OC5C(O)C3O)C3COC(=O)C23)OCO4)cc(OC)c1O (centres unmarked) [1569O13]	6.74	S (strong (Z score > 5))	–
COc1ccc(CC(N)C(=O)NC2C(CO)OC(n3cnc4c(N(C)C)ncnc43)C2O)cc1.Cl (centres unmarked) [1569O22]	7.86	S (strong (Z score > 5))	–
CC1OC(OC2CCC3(C=O)C4CCC5(C)C(C6=CC(=O)OC6)CCC5(O)C4CCC3(O)C2)CC(O)C1O (centres unmarked) [1570A13]	2.74	W (weak (Z score 2-3)	–
CC12CCC(O)CC1CCC1C2CC(O)C2(C)C(C3=CC(=O)OC3)CCC12O (centres unmarked) [1570B08]	2.80	W (weak (Z score 2-3)	–
CN(C)CCN(Cc1ccc(Cl)cc1)c1ccccn1.Cl [1570B15]	8.42	S (strong (Z score > 5))	–
CCC1(C2OC(C3OC(O)(CO)C(C)CC3C)CC2C)CCC(C2(C)CCC3(CC(O)C(C)C(C(C)C(OC)C(C)C(=O)[O-])O3)O2)O1.[Na+] (centres unmarked) [1570E18]	9.26	S (strong (Z score > 5))	–
CCC(C(=O)C(C)C(O)C(C)CCc1ccc(C)c(O)c1C(=O)[O-])C1OC(CC)(C2CCC(O)(CC)C(C)O2)CC1C.[Na+] (centres unmarked) [1570F17]	8.04	S (strong (Z score > 5))	–
Cc1cc2c(C(C)C)c(O)c(O)c(C=O)c2c(O)c1-c1c(C)cc2c(C(C)C)c(O)c(O)c(C=O)c2c1O [1570G15]	3.54	M (medium (Z score 3-5))	–
NCC1OC(OC2C(N)CC(N)C(O)C2OC2OC(CO)C(O)C2O)C(N)C(O)C1O.O=S(=O)(O)O (centres unmarked) [1570G18]	6.58	S (strong (Z score > 5))	–
O=C1C=C2C=CC3CC2(O1)C1CCCCN31 (centres unmarked) [1570J03]	3.84	M (medium (Z score 3-5))	–
CCCCCCCCCCCCCCCC[N+](C)(C)CCN(Cc1ccc(OC)cc1)c1ncccn1 [1570J12]	8.18	S (strong (Z score > 5))	–
CCCC(C(=O)OCCN(CC)CC)(c1ccccc1)c1ccccc1.Cl [1570K18]	3.31	M (medium (Z score 3-5))	–
Nc1ncn(C2OC(CO)C(O)C2O)c(=O)n1 (centres unmarked) [1570N13]	7.46	S (strong (Z score > 5))	–
O=c1cc(-c2ccc(O)c(O)c2)oc2cc(O)cc(O)c12 [1570N21]	3.48	M (medium (Z score 3-5))	–
CCCCc1ccc2nc(NC(=O)C3=NN(C)C(=O)CC3)sc2c1 [1715B12]	2.67	W (weak (Z score 2-3)	–
COc1cc(C#N)ccc1OC(=O)Cc1coc2ccc3ccccc3c12 [1715D21]	2.52	W (weak (Z score 2-3)	–
C/C=C(/C)C(=O)O[C@H]1C(C)=C2[C@H]([C@@H]1OC(=O)CCCCCCC)[C@@](C)(OC(C)=O)C[C@H](OC(=O)CCC)[C@@]1(O)[C@H]2OC(=O)[C@@]1(C)O [Thapsigargin, reference compound]	–	–	IC50 (LNCaP-S14 cells): 7.8 nM; hit in primary screen (increased percentage of p27 positive cells) ([1]; LNCaP-S14, ~5 to 35 μM, 18 h): identified; IC50 [2]: 31 nM
COC[C@H]1OC(=O)c2coc3c2[C@@]1(C)C1=C(C3=O)[C@@H]2CCC(=O)[C@@]2(C)C[C@H]1OC(C)=O [Wortmannin, reference compound]	–	–	hit in primary screen (increased percentage of p27 positive cells) ([1]; LNCaP-S14, ~5 to 35 μM, 18 h): scored positive
CC[C@@]1(O)C(=O)OCc2c1cc1n(c2=O)Cc2cc3ccccc3nc2-1 [camptothecin, reference compound]	–	–	hit in primary screen (increased percentage of p27 positive cells) ([1]; LNCaP-S14, ~5 to 35 μM, 18 h): identified
COc1cc([C@@H]2c3cc4c(cc3[C@@H](O[C@@H]3O[C@@H]5CO[C@@H](C)O[C@H]5[C@H](O)[C@H]3O)[C@H]3COC(=O)[C@H]23)OCO4)cc(OC)c1O [etoposide, reference compound]	–	–	hit in primary screen (increased percentage of p27 positive cells) ([1]; LNCaP-S14, ~5 to 35 μM, 18 h): identified
CO[C@@]12[C@H](COC(N)=O)C3=C(C(=O)C(C)=C(N)C3=O)N1C[C@@H]1N[C@@H]12 [mitomycin C, reference compound]	–	–	hit in primary screen (increased percentage of p27 positive cells) [1]: identified
CC[C@H](CO)Nc1nc(NCc2ccccc2)c2ncn(C(C)C)c2n1 [roscovitine, reference compound]	–	–	percentage of p27 positive cells [1]: up to 50%
